Test results taken from ChEMBL document CHEMBL5257092, “Synthesis and biological evaluation of biaryl alkyl ethers as inhibitors of IDO1” (Bioorg Med Chem Lett, 2023).

What was measured:
[1] = Metabolic stability in human liver microsomes assessed as compound remaining at 0.5 uM incubated for 10 mins relative to control; assay type: ADME, Microsome; conditions: for remaining at 10 min, 0.5 µM: liver microsomes, read-out: Stability
[2] = biological target: T1, Cytochrome P450 2C9 (Homo sapiens, UniProt P11712); experiment: Inhibition of CYP2C9 (unknown origin); assay type: ADME
[3] = Metabolic stability in mouse liver microsomes assessed as compound remaining at 0.5 uM incubated for 10 mins relative to control; assay type: ADME, Microsome; conditions: for remaining at 10 min, 0.5 µM: liver microsomes, read-out: Stability
[4] = biological target: Indoleamine 2,3-dioxygenase 1 (Homo sapiens, UniProt P14902); experiment: Inhibition of IDO1 (unknown origin) expressed in human HeLa cells; assay type: cell-based
[5] = Metabolic stability in rat liver microsomes assessed as compound remaining at 0.5 uM incubated for 10 mins relative to control; assay type: ADME, Microsome; conditions: for remaining at 10 min, 0.5 µM: liver microsomes, read-out: Stability; for Stability: microsomes, 10 min, 0.5 µM
[6] = biological target: T2, Voltage-gated inwardly rectifying potassium channel KCNH2 (Homo sapiens, UniProt Q12809); experiment: Inhibition of hERG; assay type: toxicity
[7] = biological target: T3, Cytochrome P450 2C8 (Homo sapiens, UniProt P10632); experiment: Inhibition of CYP2C8 (unknown origin); assay type: ADME
T3 sequence (P10632 whole entry): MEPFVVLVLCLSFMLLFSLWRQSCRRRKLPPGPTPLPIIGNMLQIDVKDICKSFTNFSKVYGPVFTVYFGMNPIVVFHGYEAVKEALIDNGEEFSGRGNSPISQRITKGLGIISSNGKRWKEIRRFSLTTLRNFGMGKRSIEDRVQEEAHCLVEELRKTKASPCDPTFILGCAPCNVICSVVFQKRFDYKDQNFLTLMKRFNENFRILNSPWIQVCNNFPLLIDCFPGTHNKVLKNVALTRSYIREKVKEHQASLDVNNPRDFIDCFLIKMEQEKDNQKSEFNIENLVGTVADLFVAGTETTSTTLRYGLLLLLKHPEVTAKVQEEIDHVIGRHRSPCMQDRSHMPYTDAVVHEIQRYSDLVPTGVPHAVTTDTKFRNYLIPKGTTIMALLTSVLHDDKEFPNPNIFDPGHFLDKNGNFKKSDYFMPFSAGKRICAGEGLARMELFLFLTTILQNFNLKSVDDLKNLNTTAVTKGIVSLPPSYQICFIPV

[8] = biological target: Tryptophan 2,3-dioxygenase (Homo sapiens, UniProt P48775); experiment: Inhibition of TDO (unknown origin) expressed in HEK cells; assay type: cell-based
[9] = biological target: hERG (Homo sapiens, UniProt Q12809); experiment: (§1) Inhibition of hERG at 10 uM relative to control; assay type: toxicity
[10] = biological target: T4, Cytochrome P450 2C19 (Homo sapiens, UniProt P33261); experiment: Inhibition of CYP2C19 (unknown origin); assay type: ADME
[11] = biological target: T5, Nuclear receptor subfamily 1 group I member 2 (Homo sapiens, UniProt O75469); experiment: Transactivation of PXR (unknown origin); assay type: toxicity
T5 sequence (O75469 whole entry): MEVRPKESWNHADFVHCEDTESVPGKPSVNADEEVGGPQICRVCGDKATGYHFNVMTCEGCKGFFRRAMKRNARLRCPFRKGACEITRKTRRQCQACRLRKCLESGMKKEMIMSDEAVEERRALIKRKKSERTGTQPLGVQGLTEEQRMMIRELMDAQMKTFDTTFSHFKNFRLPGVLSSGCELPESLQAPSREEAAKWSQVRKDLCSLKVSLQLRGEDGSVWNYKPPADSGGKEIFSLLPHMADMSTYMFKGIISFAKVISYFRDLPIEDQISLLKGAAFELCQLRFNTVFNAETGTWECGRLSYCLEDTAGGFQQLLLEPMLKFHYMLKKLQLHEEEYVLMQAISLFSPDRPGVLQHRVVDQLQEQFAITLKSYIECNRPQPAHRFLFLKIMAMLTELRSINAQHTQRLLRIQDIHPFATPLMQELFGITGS

[12] = Stability in dog liver microsomes assessed as half life; assay type: ADME, Canis lupus familiaris, Microsome
[13] = biological target: T3, Cytochrome P450 2C8; experiment: Inhibition of human CYP2C8; assay type: ADME
[14] = Stability in human liver microsomes assessed as half life; assay type: ADME, Microsome
[15] = biological target: T6, Cytochrome P450 2B6 (Homo sapiens, UniProt P20813); experiment: Inhibition of human CYP2B6; assay type: ADME
T6 sequence (P20813 whole entry): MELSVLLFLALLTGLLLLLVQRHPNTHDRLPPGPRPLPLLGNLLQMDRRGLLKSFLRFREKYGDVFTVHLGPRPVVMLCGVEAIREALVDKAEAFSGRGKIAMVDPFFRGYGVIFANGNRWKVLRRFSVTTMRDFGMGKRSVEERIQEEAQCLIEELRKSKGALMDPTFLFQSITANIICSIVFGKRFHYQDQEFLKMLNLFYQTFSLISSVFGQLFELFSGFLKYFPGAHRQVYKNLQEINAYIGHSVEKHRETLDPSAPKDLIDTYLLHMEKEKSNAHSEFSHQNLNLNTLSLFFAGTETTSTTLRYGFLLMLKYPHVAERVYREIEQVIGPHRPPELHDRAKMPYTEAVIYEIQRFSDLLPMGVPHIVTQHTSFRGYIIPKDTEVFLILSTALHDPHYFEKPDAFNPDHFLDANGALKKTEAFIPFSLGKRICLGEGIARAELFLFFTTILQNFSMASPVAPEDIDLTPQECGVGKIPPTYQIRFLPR

[16] = Stability in rat liver microsomes assessed as half life; assay type: ADME, Microsome
[17] = biological target: Cytochrome P450 3A4 (Homo sapiens, UniProt P08684); experiment: Inhibition of human CYP3A4; assay type: ADME
[18] = biological target: Cytochrome P450 2D6 (Homo sapiens, UniProt P10635); experiment: Inhibition of human CYP2D6; assay type: ADME
[19] = Stability in monkey liver microsomes assessed as half life; assay type: ADME, Macaca mulatta, Microsome; conditions: rhesus monkey
[20] = biological target: T7, Cytochrome P450 1A2 (Homo sapiens, UniProt P05177); experiment: Inhibition of human CYP1A2; assay type: ADME
T7 sequence (P05177 whole entry): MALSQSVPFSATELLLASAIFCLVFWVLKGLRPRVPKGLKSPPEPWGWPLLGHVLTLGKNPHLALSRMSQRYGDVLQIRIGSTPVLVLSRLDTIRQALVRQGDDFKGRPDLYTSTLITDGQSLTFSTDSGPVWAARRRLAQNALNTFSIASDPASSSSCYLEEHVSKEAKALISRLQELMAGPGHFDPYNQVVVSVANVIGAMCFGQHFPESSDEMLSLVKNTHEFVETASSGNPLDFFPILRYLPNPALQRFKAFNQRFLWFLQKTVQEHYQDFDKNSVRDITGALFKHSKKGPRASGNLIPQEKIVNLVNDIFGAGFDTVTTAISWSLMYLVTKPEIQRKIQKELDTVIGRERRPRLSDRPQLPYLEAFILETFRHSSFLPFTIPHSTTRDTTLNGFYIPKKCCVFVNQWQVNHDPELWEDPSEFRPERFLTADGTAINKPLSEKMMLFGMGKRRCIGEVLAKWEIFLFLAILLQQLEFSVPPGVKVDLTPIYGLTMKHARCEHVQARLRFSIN

[21] = biological target: T4, Cytochrome P450 2C19; experiment: Inhibition of human CYP2C19; assay type: ADME
[22] = biological target: T1, Cytochrome P450 2C9; experiment: Inhibition of human CYP2C9; assay type: ADME
[23] = Stability in mouse liver microsomes assessed as half life; assay type: ADME, Microsome
[24] = biological target: T2, Voltage-gated inwardly rectifying potassium channel KCNH2; experiment: as §1; assay type: toxicity; conditions: 10 µM

Sequence of Indoleamine 2,3-dioxygenase 1 (P14902 whole entry): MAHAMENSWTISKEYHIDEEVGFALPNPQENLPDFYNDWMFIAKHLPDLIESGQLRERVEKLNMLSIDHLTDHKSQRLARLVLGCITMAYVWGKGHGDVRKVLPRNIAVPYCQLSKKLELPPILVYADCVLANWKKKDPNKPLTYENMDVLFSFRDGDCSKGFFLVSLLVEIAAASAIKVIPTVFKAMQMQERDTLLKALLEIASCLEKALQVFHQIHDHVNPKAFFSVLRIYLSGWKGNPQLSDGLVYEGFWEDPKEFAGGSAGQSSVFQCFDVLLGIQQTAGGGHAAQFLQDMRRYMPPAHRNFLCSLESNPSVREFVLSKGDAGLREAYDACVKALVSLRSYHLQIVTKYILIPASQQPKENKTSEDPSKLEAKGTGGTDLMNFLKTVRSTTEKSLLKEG
T1 sequence (P11712 whole entry): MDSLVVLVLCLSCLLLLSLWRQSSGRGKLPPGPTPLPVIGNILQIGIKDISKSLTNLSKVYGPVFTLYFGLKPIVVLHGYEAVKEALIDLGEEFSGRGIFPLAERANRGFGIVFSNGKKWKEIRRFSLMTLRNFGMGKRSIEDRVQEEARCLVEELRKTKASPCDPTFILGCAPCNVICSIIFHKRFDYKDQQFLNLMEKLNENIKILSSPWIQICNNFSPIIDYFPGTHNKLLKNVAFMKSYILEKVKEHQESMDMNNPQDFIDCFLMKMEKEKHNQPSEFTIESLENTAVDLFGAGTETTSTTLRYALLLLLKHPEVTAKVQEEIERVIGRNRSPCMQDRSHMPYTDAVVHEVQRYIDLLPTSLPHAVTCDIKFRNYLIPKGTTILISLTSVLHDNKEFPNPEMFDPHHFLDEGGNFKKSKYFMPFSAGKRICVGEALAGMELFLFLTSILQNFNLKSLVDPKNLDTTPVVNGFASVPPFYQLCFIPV
Sequence of Tryptophan 2,3-dioxygenase (P48775 whole entry): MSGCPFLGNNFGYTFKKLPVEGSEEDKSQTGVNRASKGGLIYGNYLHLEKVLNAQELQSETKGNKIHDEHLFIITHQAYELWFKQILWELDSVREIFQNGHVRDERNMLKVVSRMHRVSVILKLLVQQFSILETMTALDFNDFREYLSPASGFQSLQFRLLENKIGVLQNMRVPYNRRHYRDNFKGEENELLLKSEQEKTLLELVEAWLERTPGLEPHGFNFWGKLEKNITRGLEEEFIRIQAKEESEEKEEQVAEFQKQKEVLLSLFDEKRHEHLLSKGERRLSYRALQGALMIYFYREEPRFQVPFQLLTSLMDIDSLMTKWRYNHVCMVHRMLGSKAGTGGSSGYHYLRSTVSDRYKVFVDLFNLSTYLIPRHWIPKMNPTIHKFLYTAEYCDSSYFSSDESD
T2 sequence (Q12809 whole entry): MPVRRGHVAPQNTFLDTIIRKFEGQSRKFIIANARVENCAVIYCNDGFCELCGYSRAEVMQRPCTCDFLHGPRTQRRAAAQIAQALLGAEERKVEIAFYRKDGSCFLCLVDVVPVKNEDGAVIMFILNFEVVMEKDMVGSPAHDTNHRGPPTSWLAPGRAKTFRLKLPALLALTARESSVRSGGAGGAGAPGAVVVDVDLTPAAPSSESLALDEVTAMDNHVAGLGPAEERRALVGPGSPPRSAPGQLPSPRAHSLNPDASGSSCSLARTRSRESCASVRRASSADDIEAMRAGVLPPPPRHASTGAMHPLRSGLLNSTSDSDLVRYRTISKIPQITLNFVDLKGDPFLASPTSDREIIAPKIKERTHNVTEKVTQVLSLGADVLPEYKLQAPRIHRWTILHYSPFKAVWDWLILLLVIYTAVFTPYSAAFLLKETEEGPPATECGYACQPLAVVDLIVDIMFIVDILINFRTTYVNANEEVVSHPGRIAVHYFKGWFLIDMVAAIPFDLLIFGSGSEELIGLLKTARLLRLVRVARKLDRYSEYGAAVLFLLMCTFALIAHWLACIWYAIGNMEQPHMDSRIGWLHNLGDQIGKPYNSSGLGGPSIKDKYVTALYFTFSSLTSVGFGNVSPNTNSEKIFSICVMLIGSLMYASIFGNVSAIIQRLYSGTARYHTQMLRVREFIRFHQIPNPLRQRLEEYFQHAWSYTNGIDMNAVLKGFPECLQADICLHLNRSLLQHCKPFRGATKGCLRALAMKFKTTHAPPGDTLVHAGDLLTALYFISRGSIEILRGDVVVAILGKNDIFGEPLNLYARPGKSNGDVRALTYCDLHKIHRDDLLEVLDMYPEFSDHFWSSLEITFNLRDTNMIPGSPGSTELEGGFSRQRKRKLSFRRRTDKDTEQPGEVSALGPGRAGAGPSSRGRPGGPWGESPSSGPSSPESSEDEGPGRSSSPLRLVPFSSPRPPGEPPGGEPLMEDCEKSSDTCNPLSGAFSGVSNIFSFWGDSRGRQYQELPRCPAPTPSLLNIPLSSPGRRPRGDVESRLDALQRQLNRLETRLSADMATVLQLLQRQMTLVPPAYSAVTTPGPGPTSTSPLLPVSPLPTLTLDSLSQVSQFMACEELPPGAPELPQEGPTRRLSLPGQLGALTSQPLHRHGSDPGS
T4 sequence (P33261 whole entry): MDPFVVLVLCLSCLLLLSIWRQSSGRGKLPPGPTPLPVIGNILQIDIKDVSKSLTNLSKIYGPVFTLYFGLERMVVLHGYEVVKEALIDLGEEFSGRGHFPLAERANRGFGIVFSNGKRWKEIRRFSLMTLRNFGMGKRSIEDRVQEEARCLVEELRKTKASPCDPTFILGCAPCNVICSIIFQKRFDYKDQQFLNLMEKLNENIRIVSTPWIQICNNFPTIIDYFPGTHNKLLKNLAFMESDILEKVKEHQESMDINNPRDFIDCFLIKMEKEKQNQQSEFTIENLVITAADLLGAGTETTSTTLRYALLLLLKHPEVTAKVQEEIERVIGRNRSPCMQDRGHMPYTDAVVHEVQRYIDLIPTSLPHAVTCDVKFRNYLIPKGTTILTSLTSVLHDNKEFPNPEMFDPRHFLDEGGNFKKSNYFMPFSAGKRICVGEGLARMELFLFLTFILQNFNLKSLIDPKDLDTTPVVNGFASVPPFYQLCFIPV
Sequence of Cytochrome P450 3A4 (P08684 whole entry): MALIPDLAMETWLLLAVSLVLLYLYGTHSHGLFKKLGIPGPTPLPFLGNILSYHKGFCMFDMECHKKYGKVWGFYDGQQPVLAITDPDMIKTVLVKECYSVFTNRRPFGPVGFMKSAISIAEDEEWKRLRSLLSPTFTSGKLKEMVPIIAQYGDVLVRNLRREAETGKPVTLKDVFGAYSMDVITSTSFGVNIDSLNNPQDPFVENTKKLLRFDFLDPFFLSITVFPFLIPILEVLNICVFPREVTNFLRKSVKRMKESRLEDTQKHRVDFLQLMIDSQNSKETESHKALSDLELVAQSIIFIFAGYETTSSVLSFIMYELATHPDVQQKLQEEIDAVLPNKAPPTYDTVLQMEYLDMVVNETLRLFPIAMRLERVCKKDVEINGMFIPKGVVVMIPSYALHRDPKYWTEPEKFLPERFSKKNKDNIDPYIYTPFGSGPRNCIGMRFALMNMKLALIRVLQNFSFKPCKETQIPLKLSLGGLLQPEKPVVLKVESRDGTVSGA
Sequence of Cytochrome P450 2D6 (P10635 whole entry): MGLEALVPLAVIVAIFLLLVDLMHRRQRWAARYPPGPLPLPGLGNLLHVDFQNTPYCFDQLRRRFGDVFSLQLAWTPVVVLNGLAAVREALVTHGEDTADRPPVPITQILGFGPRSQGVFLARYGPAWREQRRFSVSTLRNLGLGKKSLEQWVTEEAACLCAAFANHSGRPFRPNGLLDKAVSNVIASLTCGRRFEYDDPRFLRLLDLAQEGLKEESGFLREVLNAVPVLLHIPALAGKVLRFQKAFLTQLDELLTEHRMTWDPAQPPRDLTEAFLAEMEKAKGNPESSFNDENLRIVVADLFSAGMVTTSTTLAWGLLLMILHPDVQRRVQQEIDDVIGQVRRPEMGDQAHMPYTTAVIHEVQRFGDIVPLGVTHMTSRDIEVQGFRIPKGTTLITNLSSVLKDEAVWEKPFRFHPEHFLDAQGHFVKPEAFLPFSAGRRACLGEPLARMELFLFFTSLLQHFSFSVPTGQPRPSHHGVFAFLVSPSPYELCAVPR

| remaining at 10 min, 0.5 µM [1] | IC50 [2] | remaining at 10 min, 0.5 µM [3] | IC50 [4] | remaining at 10 min, 0.5 µM [5] | IC50 [8] | Compound | IC50 [6] | other results |
| --- | --- | --- | --- | --- | --- | --- | --- | --- |
| 69% | 2.8 µM | 68% | 0.011 µM | 66% | – | Cc1ccc(NC(=O)Nc2cc(-c3ccccc3-c3nn[nH]n3)cc3c2OCC=CC3c2ccccc2)cc1 (racemic) | 69 µM | – |
| 100% | – | 66% | 0.025 µM | 74% | – | Cc1ccc(NC(=O)Nc2cc(-c3ccccc3-c3nn[nH]n3)cc3c2O[C@@H](C)CCC[C@H]3c2ccccc2)cc1 | – | IC50 [7]: 3.2 µM |
| 100% | – | 61% | – | 100% | > 7.5 µM | COc1ccc(-c2ccc(Oc3ccccc3C(C)(C)C)c(NC(=O)Nc3ccccc3F)c2)cc1C(=O)O | – | IC50 [7]: 5.1 µM |
| 94% | – | 77% | 0.0034 µM | 86% | > 7.5 µM | C=CC1(C=C)Oc2c(NC(=O)Nc3ccc(C)cc3)cc(-c3ccccc3-c3nn[nH]n3)cc2[C@@H]1c1ccccc1 | > 80 µM | IC50 [7]: 0.27 µM |
| – | – | – | 0.24 µM | – | – | Cc1ccc(NC(=O)Nc2cc(-c3ccccc3C(=O)O)ccc2O[C@@H]2CCCC[C@H]2C)cc1 (racemic) | – | – |
| 72% | – | 56% | 0.0015 µM | – | > 6 µM | Cc1ccc(NC(=O)Nc2cc(-c3ccccc3-c3nc(=O)[nH]o3)cc3c2OCCCC3c2ccccc2)cc1 (stereo in doubt; 19) | – | inhibition at 10 µM [9]: 12%; IC50 [10]: 1.2 µM; Stability [5]: 61% |
| – | – | – | > 1 µM | – | – | COc1ccc(-c2ccc(O[C@@H]3CCCC[C@H]3C)c(NC(=O)Nc3ccc(C)cc3)c2)cc1C(=O)O (racemic) | – | – |
| 62% | 1.8 µM | 47% | 0.025 µM | 76% | – | CCCC(CCC)Oc1ccc(-c2ccccc2-c2nn[nH]n2)cc1NC(=O)Nc1ccc(C)cc1 | > 80 µM | – |
| 82% | 6.2 µM | 68% | 0.031 µM | 86% | – | CCCOc1c(CCC)cc(-c2ccccc2-c2nn[nH]n2)cc1NC(=O)Nc1ccc(C)cc1 | 40 µM | EC50 [11]: > 9 µM |
| – | – | – | 1.6 µM | – | – | COc1ccc(-c2ccc(OC(C(C)C)C(C)C)c(NC(=O)Nc3ccc(C)cc3)c2)cc1C(=O)O | – | – |
| 70% | 3.7 µM | 84% | 0.0036 µM | 92% | > 6 µM | Cc1ccc(NC(=O)Nc2cc(-c3ccccc3-c3nn[nH]n3)cc3c2OCCCC3c2ccccc2)cc1 (stereo in doubt; 21) | – | half-life [12]: 22 min; IC50 [13]: 18 µM; half-life [14]: 18 min; inhibition at 10 µM [9]: 41%; IC50 [15]: 17 µM; half-life [16]: 54 min; IC50 [17]: 8.4 µM; IC50 [18]: > 20 µM; half-life [19]: 7.4 min; IC50 [20]: > 20 µM; IC50 [21]: 6.7 µM; IC50 [22]: 3.7 µM; half-life [23]: 25 min |
| – | 6.8 µM | – | 0.015 µM | – | – | Cc1ccc(NC(=O)Nc2cc(-c3ccccc3-c3nn[nH]n3)cc3c2OCCCC3c2ccccc2)cc1 (stereo in doubt; 22) | – | Stability ([1]; microsomes, 10 min, 0.5 µM): 72%; inhibition (INH) [24]: 53%; Stability ([3]; microsomes, 10 min, 0.5 µM): 100%; IC50 ([8]; hek): > 6 µM; Stability [5]: 96% |
| 94% | – | 76% | 0.012 µM | 61% | – | Cc1ccc(NC(=O)Nc2cc(-c3ccccc3-c3nn[nH]n3)cc3c2O[C@@H](C)C/C=C\[C@H]3c2ccccc2)cc1 | – | IC50 [7]: 1.9 µM |
| 41% | 1.4 µM | 2% | – | 48% | – | Cc1ccc(NC(=O)Nc2cc(-c3ccccc3-c3nn[nH]n3)ccc2OC(C(C)C)C(C)C)cc1 | 18 µM | – |
| 78% | – | 75% | 0.012 µM | 88% | > 7.5 µM | C=C[C@H]1Oc2c(NC(=O)Nc3ccc(C)cc3)cc(-c3ccccc3-c3nnn[nH]3)cc2[C@@H]1c1ccccc1 (racemic) | – | IC50 [7]: 1 µM |
| 37% | 2.7 µM | 33% | 0.007 µM | 60% | > 7.5 µM | Cc1ccc(NC(=O)Nc2cc(-c3ccccc3-c3nnn[nH]3)ccc2N(CC(C)C)CC(C)C)cc1 | – | half-life [12]: 11 min; IC50 [13]: 9.2 µM; half-life [14]: 9.1 min; IC50 [15]: 19 µM; half-life [16]: 22 min; IC50 [17]: 7.8 µM; IC50 [18]: 18 µM; half-life [19]: 4 min; IC50 [20]: 9.5 µM; IC50 [21]: 8.7 µM; IC50 [22]: 2.7 µM; half-life [23]: 6.6 min |
| 82% | 0.97 µM | 57% | 0.0059 µM | 77% | – | C=C[C@@H]1Oc2c(NC(=O)Nc3ccc(C)cc3)cc(-c3ccccc3-c3nn[nH]n3)cc2[C@@H]1c1ccccc1 (racemic) | – | – |
| 75% | 5.1 µM | 81% | 0.013 µM | 72% | – | CC(C)CN(CC(C)C)c1ccc(-c2ccccc2C(=O)O)cc1NC(=O)Nc1ccccc1F | – | – |
| 100% | 14 µM | 82% | – | 85% | – | CCCOc1c(CCC)cc(-c2ccccc2C(=O)O)cc1NC(=O)Nc1ccc(C)cc1 | > 80 µM | EC50 [11]: > 20 µM |
| 52% | – | 42% | 0.0063 µM | 73% | – | Cc1ccc(NC(=O)Nc2cc(-c3ccccc3-c3nn[nH]n3)cc3c2OC(C)(C)[C@H]3c2ccccc2)cc1 (racemic) | – | IC50 [10]: 0.42 µM |
